From patent publication US11167007B2, “FOXM1 modulators and uses thereof” (City of Hope, priority 2016, dated 2021)
“Also recorded” adds a separate entry of the source.

How the values were obtained:
Format in all cases: cell-based, murine
AR [1] = assay: Androgen-responsive luciferase reporter assay in GT1-7 cells; settings: for inhibition of AR transcriptional activity (luciferase): GT1-7 cells, treated overnight, FIG. 2A; for Fold Difference: GT1-7 luciferase
Experimental: Luciferase Reporter Assay. […] The following day, cells and drugs were distributed to 96-well plates. 24 hours later, luciferase activity was assessed by a dual luciferase assay kit (Promega) on the Tecan plate reader. Samples were run in quadruplicates and a Student's t test was performed to determine significance, where p<0.05 was considered significant.
In order to identify potential cell-type selective AR modulators, the FRET-based assay of AR conformation change was utilized. AR signaling is a complex process involving many steps in addition to ligand binding. One crucial step is the ligand-induced conformational change of AR, which brings the carboxy (C)- and amino (N)-termini of the receptor together. Full length AR with cyan fluorescent protein (CFP) or yellow fluorescent protein (YFP) fused to either end (CARY) produces a FRET signal upon AR conformation change (FIG. 1A). This produces an accurate and quantifiable read-out of AR activity. […] Cells were plated in 96 wells and treated with library compounds 24 hours prior to accessing conformational changes by FRET. […] Candidate hits were then further evaluated by dose response. […] In addition to FRET, AR transcriptional activity was also assessed in several cell lines by transfecting cells with a luciferase reporter driven by the human PSA promoter.

AR [2] = assay: Androgen-responsive luciferase reporter assay in C2C12 cells; settings: treated overnight, FIG. 2A
Description: Luciferase Reporter Assay. Cells were transfected using Lipofectamine Plus (Invitrogen) with a normalization plasmid (pRL-SV40, Promega) and an androgen responsive plasmid (MMTV-luciferase or PSA-luciferase) as described in Jones et al, ACS Chem Biol, 3(7):412-8 (2008), and, where indicated, with an shRNA plasmid targeting FOXM1 (adapted for mouse FOXM1 sequence targeting) a scrambled control shRNA plasmid, or ARQ24 or ARQ65 plasmids. Christensen et al, PLoS One, 8(1):e54556 (2013). The following day, cells and drugs were distributed to 96-well plates. 24 hours later, luciferase activity was assessed by a dual luciferase assay kit (Promega) on the Tecan plate reader. Samples were run in quadruplicates and a Student's t test was performed to determine significance, where p<0.05 was considered significant.
In order to identify potential cell-type selective AR modulators, the FRET-based assay of AR conformation change was utilized. AR signaling is a complex process involving many steps in addition to ligand binding. One crucial step is the ligand-induced conformational change of AR, which brings the carboxy (C)- and amino (N)-termini of the receptor together. Full length AR with cyan fluorescent protein (CFP) or yellow fluorescent protein (YFP) fused to either end (CARY) produces a FRET signal upon AR conformation change (FIG. 1A). This produces an accurate and quantifiable read-out of AR activity. Jones et al, ACS Chem Biol, 3(7):412-8 (2008). Because the interest was in the potential of neuron selective AR inhibitors for treatment of SBMA, the initial screen was carried out in CARY-transfected GT1-7 cells, which are a mouse model of hypothalamic neurons. Liposits et al, Endocrinology, 129(3):1575-83 (1991). Cells were plated in 96 wells and treated with library compounds 24 hours prior to accessing conformational changes by FRET. […] Candidate hits were then further evaluated by dose response. […] In addition to FRET, AR transcriptional activity was also assessed in several cell lines by transfecting cells with a luciferase reporter driven by the human PSA promoter. […]

AR [3] = assay: Western blot of AR levels in GT1-7 CARY cells
Description: Western Blot. Cell lysates was separated on a 6% SDS page gel and transferred to a nitrocellulose membrane. The membrane was blocked for one hour in 5% skim milk dissolved in TBS-T and probed with the following antibodies ([…]): FoxM1 (rabbit, GeneTex), AR: 441 (mouse, Santa Cruz Biotechnology), β-catenin (rabbit 9562, Cell Signaling Technology), p84 (mouse, GeneTex) and actin (mouse, Santa Cruz Biotechnology). Horse radish peroxidase linked secondary antibodies were used along with ECL reagents for visualization. Western blots were quantified using Quantity One analysis software (BioRad).
It has been previously reported that thiostrepton causes decreased levels of FOXM1. Hegde et al, Nat Chem, 3(9):725-31 (2011); Gartel, Front Oncol, 3:150 (2013). […] The nuclear association between FOXM1 and β-catenin increases the transcriptional activity of both factors. Zhang et al, Cancer Cell, 20(4):427-42 (2011). β-catenin is a key AR coactivator in a variety of cells. Yang, J Biol Chem, 277(13):11336-44 (2002); Truica et al, Cancer Res, 60(17):4709-13 (2000). The inventors believed that thiostrepton could inhibit AR activity by limiting access to nuclear β-catenin via FOXM1 depletion. […] As expected, control actin protein was observed primarily in cytoplasmic fraction.

Row | Structure (SMILES) | inhibition of AR transcriptional activity (luciferase) (AR [1]) | inhibition of AR transcriptional activity (luciferase) (AR [2]) | AR levels (Western blot) (AR [3]) | Fold Difference (AR [1]; DHT - 100 nM thiostrepton, Control shRNA) | Fold Difference (AR [1]; DHT - 100 nM thiostrepton, FOXM1 shRNA) | Fold Difference (AR [1]; DHT-10 nM thiostrepton, Control shRNA) | Fold Difference (AR [1]; DHT-10 nM thiostrepton, FOXM1 shRNA) | potency of thiostrepton on AR activity after decreasing FOXM1 expression (AR [1]; FOXM1 shRNA vs control, GT1-7, FIG. 3B)
1 | C=C(NC(=O)C(=C)NC(=O)c1csc(C2=N[C@@H]3c4csc(n4)[C@H]4NC(=O)c5csc(n5)[C@H]([C@](C)(O)[C@@H](C)O)NC(=O)[C@H]5CSC(=N5)/C(=C/C)NC(=O)[C@H]([C@@H](C)O)NC(=O)c5csc(n5)[C@]3(CC2)NC(=O)[C@H](C)NC(=O)C(=C)NC(=O)C(=C)NC(=O)[C@H](C(C)C)N[C@@H]2C=Cc3c([C@H](C)O)cc(nc3[C@H]2O)C(=O)O[C@@H]4C)n1)C(N)=O [NSC285116, siomycin A] | selectively inhibit AR activity | not C2C12 cells |  |  |  |  |  | 
2 | C=C(NC(=O)C(=C)NC(=O)c1csc(C2=N[C@@H]3c4csc(n4)[C@H]4NC(=O)c5csc(n5)[C@H]([C@](C)(O)[C@@H](C)O)NC(=O)[C@H]5CSC(=N5)/C(=C/C)NC(=O)[C@H]([C@@H](C)O)NC(=O)c5csc(n5)[C@]3(CC2)NC(=O)[C@H](C)NC(=O)C(=C)NC(=O)[C@H](C)NC(=O)[C@H]([C@@H](C)CC)N[C@@H]2C=Cc3c([C@H](C)O)cc(nc3[C@H]2O)C(=O)O[C@@H]4C)n1)C(N)=O [thiostrepton] | most potent; also recorded: nanomolar potency; also recorded: selectively inhibit AR activity | not C2C12 cells | not consistently decreased | 2.04 | 1.62 | 1.54 | 1.34 | diminished the potency
